# The source made the active and inactive calls. The rule behind the calls is not given here.
# Key:
# [1] = tested on: DU-145; experiment: Induction of apoptosis in human DU145 cells assessed as condensed,pyknotic and fragmented nuclei at 1.25 to 5 uM after 48 hrs by DAPI staining based fluorescent microscopic analysis; type: functional, cell-based
# [2] = tested on: DU-145; experiment: Induction of apoptosis in human DU145 cells assessed as reduction in viable cells at 1.25 to 5 uM after 24 hrs by phase contrast microscopic analysis; type: functional, cell-based
# [3] = Anticancer activity against human BT549 cells after 48 hrs by MTT assay; type: functional, cell-based; settings: BT-549, 48 h
# [4] = tested on: MDA-MB-231; experiment: Anticancer activity against human MDA-MB-231 cells after 48 hrs by MTT assay; type: functional, cell-based; settings: MDA-MB-231, 48 h
# [5] = Anticancer activity against human PC3 cells after 48 hrs by MTT assay; type: functional, cell-based; settings: PC-3, 48 h
# [6] = Anticancer activity against human DU145 cells after 48 hrs by MTT assay; type: functional, cell-based; settings: DU-145, 48 h
# [7] = Anticancer activity against human PA1 cells after 48 hrs by MTT assay; type: functional, cell-based; settings: PA-1, 48 h
# [8] = Cytotoxicity against human RWPE1 cells after 48 hrs by MTT assay; type: cell-based; settings: RWPE-1, 48 h
# [9] = Selectivity index, ratio of IC50 for human RWPE1 cells to IC50 for human DU145 cells; type: functional
# [10] = tested on: DU-145; experiment: Anticlonogenic activity against human DU145 cells assessed as inhibition of colony formation of cells incubated for 24 hrs followed by compound washout measured after 14 days by methylene-blue staining-based assay; type: functional, cell-based
# [11] = tested on: DU-145; experiment: Induction of apoptosis in human DU145 cells assessed as apoptotic bodies at 1.25 to 5 uM after 24 hrs by phase contrast microscopic analysis; type: functional, cell-based
# [12] = tested on: DU-145; experiment: Induction of apoptosis in human DU145 cells assessed as […] deformation at 1.25 to 5 uM after 24 hrs by phase contrast microscopic analysis; type: functional, cell-based
# [13] = tested on: DU-145; experiment: Induction of apoptosis in human DU145 cells assessed as cell shrinkage at 1.25 to 5 uM after 24 hrs by phase contrast microscopic analysis; type: functional, cell-based
# [14] = tested on: DU-145; experiment: Induction of apoptosis in human DU145 cells assessed as apoptotic bodies at 1.25 to 5 uM after 48 hrs by acridine orange/ethidium bromide staining based fluorescent microscopic analysis; type: functional, cell-based
# [15] = tested on: DU-145; experiment: Induction of apoptosis in human DU145 cells assessed as membrane blebbing at 1.25 to 5 uM after 48 hrs by acridine orange/ethidium bromide staining based fluorescent microscopic analysis; type: functional, cell-based
# [16] = tested on: DU-145; experiment: Induction of apoptosis in human DU145 cells assessed as cell shrinkage at 1.25 to 5 uM after 48 hrs by acridine orange/ethidium bromide staining based fluorescent microscopic analysis; type: functional
# [17] = tested on: DU-145; experiment: Induction of apoptosis in human DU145 cells assessed as chromatin condensation at 1.25 to 5 uM after 48 hrs by acridine orange/ethidium bromide staining based fluorescent microscopic analysis; type: functional, cell-based
# [18] = tested on: DU-145; experiment: Induction of DNA fragmentation in human DU145 cells assessed as smear formation at 1.25 to 2.5 uM after ethidium bromide staining based agarose gel electrophoresis; type: functional, cell-based
# [19] = tested on: DU-145; experiment: Induction of DNA fragmentation in human DU145 cells assessed as DNA ladder formation at 5 uM after ethidium bromide staining based agarose gel electrophoresis; type: functional, cell-based
# [20] = Cell cycle arrest in human DU145 cells assessed as accumulation at G1 phase at 2 uM after 24 hrs by propidium iodide staining based flow cytometric analysis (reference value: 78.18%); type: functional; settings: DU-145
# [21] = Cell cycle arrest in human DU145 cells assessed as accumulation at S phase at 2 uM after 24 hrs by propidium iodide staining based flow cytometric analysis (reference value: 3.39%); type: functional; settings: DU-145
# [22] = Cell cycle arrest in human DU145 cells assessed as accumulation at G2/M phase at 2 uM after 24 hrs by propidium iodide staining based flow cytometric analysis (reference value: 16.66%); type: functional; settings: DU-145
# [23] = Cell cycle arrest in human DU145 cells assessed as accumulation at G1 phase at 4 uM after 24 hrs by propidium iodide staining based flow cytometric analysis (reference value: 78.18%); type: functional; settings: DU-145
# [24] = Cell cycle arrest in human DU145 cells assessed as accumulation at S phase at 4 uM after 24 hrs by propidium iodide staining based flow cytometric analysis (reference value: 3.39%); type: functional; settings: DU-145
# [25] = Cell cycle arrest in human DU145 cells assessed as accumulation at G2/M phase at 4 uM after 24 hrs by propidium iodide staining based flow cytometric analysis (reference value: 16.66%); type: functional; settings: DU-145
# [26] = Cell cycle arrest in human DU145 cells assessed as accumulation at G1 phase at 8 uM after 24 hrs by propidium iodide staining based flow cytometric analysis (reference value: 78.18%); type: functional; settings: DU-145
# [27] = Cell cycle arrest in human DU145 cells assessed as accumulation at S phase at 8 uM after 24 hrs by propidium iodide staining based flow cytometric analysis (reference value: 3.39%); type: functional; settings: DU-145
# [28] = Cell cycle arrest in human DU145 cells assessed as accumulation at G2/M phase at 8 uM after 24 hrs by propidium iodide staining based flow cytometric analysis (reference value: 16.66%); type: functional; settings: DU-145
# [29] = tested on: DU-145; experiment: Induction of apoptosis in human DU145 cells assessed as dead cells at 1.25 uM after 24 hrs by annexin V-FITC/propidium iodide staining based flow cytometric analysis (reference value: 2.78%); type: functional
# [30] = tested on: DU-145; experiment: Induction of apoptosis in human DU145 cells assessed as late apoptotic cells at 1.25 uM after 24 hrs by annexin V-FITC/propidium iodide staining based flow cytometric analysis (reference value: 4.48%); type: functional
# [31] = tested on: DU-145; experiment: Induction of apoptosis in human DU145 cells assessed as viable cells at 1.25 uM after 24 hrs by annexin V-FITC/propidium iodide staining based flow cytometric analysis (reference value: 89.63%); type: functional; settings: DU-145, 24 h, read-out: Activity
# [32] = tested on: DU-145; experiment: Induction of apoptosis in human DU145 cells assessed as early apoptotic cells at 1.25 uM after 24 hrs by annexin V-FITC/propidium iodide staining based flow cytometric analysis (reference value: 3.11%); type: functional
# [33] = tested on: DU-145; experiment: Induction of apoptosis in human DU145 cells assessed as dead cells at 2.5 uM after 24 hrs by annexin V-FITC/propidium iodide staining based flow cytometric analysis (reference value: 2.78%); type: functional
# [34] = tested on: DU-145; experiment: Induction of apoptosis in human DU145 cells assessed as late apoptotic cells at 2.5 uM after 24 hrs by annexin V-FITC/propidium iodide staining based flow cytometric analysis (reference value: 4.48%); type: functional
# [35] = tested on: DU-145; experiment: Induction of apoptosis in human DU145 cells assessed as viable cells at 2.5 uM after 24 hrs by annexin V-FITC/propidium iodide staining based flow cytometric analysis (reference value: 89.63%); type: functional; settings: DU-145, 24 h, read-out: Activity
# [36] = tested on: DU-145; experiment: Induction of apoptosis in human DU145 cells assessed as early apoptotic cells at 2.5 uM after 24 hrs by annexin V-FITC/propidium iodide staining based flow cytometric analysis (reference value: 3.11%); type: functional
# [37] = tested on: DU-145; experiment: Induction of apoptosis in human DU145 cells assessed as dead cells at 5 uM after 24 hrs by annexin V-FITC/propidium iodide staining based flow cytometric analysis (reference value: 2.78%); type: functional
# [38] = tested on: DU-145; experiment: Induction of apoptosis in human DU145 cells assessed as late apoptotic cells at 5 uM after 24 hrs by annexin V-FITC/propidium iodide staining based flow cytometric analysis (reference value: 4.48%); type: functional
# [39] = tested on: DU-145; experiment: Induction of apoptosis in human DU145 cells assessed as viable cells at 5 uM after 24 hrs by annexin V-FITC/propidium iodide staining based flow cytometric analysis (reference value: 89.63%); type: functional; settings: DU-145, 24 h, read-out: Activity
# [40] = tested on: DU-145; experiment: Induction of apoptosis in human DU145 cells assessed as early apoptotic cells at 5 uM after 24 hrs by annexin V-FITC/propidium iodide staining based flow cytometric analysis (reference value: 3.11%); type: functional
# [41] = tested on: DU-145; experiment: Induction of apoptosis in human DU145 cells assessed as loss of mitochondrial membrane potential at 5 uM after 24 hrs by rhodamine 123 based spectrofluorometric analysis relative to control; type: functional
# [42] = tested on: DU-145; experiment: Induction of apoptosis in human DU145 cells assessed as ROS production after 24 hrs by carboxy-DCFDA based fluorescence microscopic analysis; type: functional, cell-based
# [43] = tested on: DU-145; experiment: Induction of apoptosis in human DU145 cells after 24 hrs by annexin V-FITC/propidium iodide staining based flow cytometric analysis; type: functional, cell-based
structure (smiles),measurement,setting,value
Cc1ccc2c(c1)C(O)(Cc1nnn[nH]1)C(=O)N2Cc1ccccc1 (stereo not drawn),Activity,[1],Active
same,Activity,[2],Active
same,IC50,[3],91.5 µM
same,IC50,[4],> 100 µM
same,IC50,[5],11.7 µM
same,IC50,[6],4.26 µM
same,IC50,[7],33.9 µM
same,IC50,[8],20.9 µM
same,Ratio IC50,[9],5
same,Activity,[10],Dose-dependent effect
same,Activity,[11],Active
same,Activity,[12],Active
same,Activity,[13],Active
same,Activity,[14],Active
same,Activity,[15],Active
same,Activity,[16],Active
same,Activity,[17],Active
same,Activity,[18],Active
same,Activity,[19],Active
same,Activity,[20],44.8%
same,Activity,[21],12.3%
same,Activity,[22],39.8%
same,Activity,[23],36.3%
same,Activity,[24],6.71%
same,Activity,[25],52.8%
same,Activity,[26],17%
same,Activity,[27],7.34%
same,Activity,[28],72.8%
same,Activity,[29],6.27%
same,Activity,[30],8.51%
same,viability at 1.25 µM,[31],68.6%
same,Activity,[32],16.63%
same,Activity,[33],3.2%
same,Activity,[34],11.6%
same,viability at 2.5 µM,[35],58.1%
same,Activity,[36],27%
same,Activity,[37],1.31%
same,Activity,[38],12.59%
same,viability at 5 µM,[39],41.3%
same,Activity,[40],44.77%
same,Activity,[41],45.4%
same,Activity,[42],Dose-dependent effect
same,Activity,[43],Dose-dependent effect

# From ChEMBL document CHEMBL3734649, “H2O-mediated isatin spiro-epoxide ring opening with NaCN: Synthesis of novel 3-tetrazolylmethyl-3-hydroxy-oxindole hybrids and their anticancer evaluation” (Eur J Med Chem, 2015)
